In patent publication US20040208782A1, “Composition and process for chemical and thermal disinfection” (priority 2003, published 2004):
Values joined by “and” are separate entries in the source; they are usually repeats but may differ in a detail not shown here. Equal values may be shown once.

Assays:
[1] = Stoppered cylinder foam test (Test 3); format: physicochemical; details: 0.1% by weight aqueous solution, room temperature
Protocol: The test is used for qualitative assessment of the foaming behaviour of solutions.
The solution to be tested is introduced, avoiding foaming as far as possible, up to the 30 ml mark in a 100 ml measuring cylinder (graduated). It is advisable to hold the cylinder at an angle and allow the solution to run slowly down the wall of the mixing cylinder. The stopper is then inserted.
If foam has nevertheless formed when introducing the solution, the test is not carried out until the foam has completely disappeared. The stoppered cylinder is shaken vigorously 10×, and the stopclock is started. The total volume of solution and foam is then read off in ml after previously specified times.
Test 3 at Room Temperature

Solubility in water = format: physicochemical
[2] = tested on: Mycobacterium terrae (ATCC15755); experiment: Mycobacterium terrae quantitative suspension test (Test 2), reduction factors; format: cell-based; details: for activity for Mycobacterium terrae (in words): 0.1% by weight; for reduction factor: Example 4, 0.1% by weight
[3] = tested on: bacteria, fungi and mycobacteria; experiment: Quantitative suspension test, overall spectrum of activity (result statements); format: cell-based; details: 0.1% by weight

Compound	foaming behaviour (in words) [1]	solubility in water (Solubility in water)	activity for Mycobacterium terrae (in words) ([2]; 50° C.)	activity for Mycobacterium terrae (in words) ([2]; room temperature, only at 60 minutes in 30% by weight ethanol solution)	activity (in words) ([2]; 0.1% strength or 0.05% strength aqueous solution, elevated temperature (e.g. 60° C.))	reduction factor ([2]; 50° C., action for 15′)	reduction factor ([2]; 50° C., action for 30′)	reduction factor ([2]; 50° C., action for 60′)	activity on Mycobacterium terrae (in words) ([2]; above room temperature, alkaline range)	antimicrobial activity (in words) ([3]; 50° C., gram-positive and gram-negative bacteria, yeasts and mycobacteria)	antimicrobial activity (in words) ([3]; low temperature)
CCCCCCCCOCC(O)CO (stereo not shown) [1-(n-octyl)glycerol ether]	pronounced foaming	< 0.2 % by weight and > 0.1 % by weight									
CCCCC(CC)COCC(O)CO (stereo not shown) [SC 50, 1-(2-Ethylhexyl)glycerol ether]	virtually no foam	0.18 % by weight	active	good activity	excellent activity	4.80	4.66	5.52	excellent activity	broad activity	virtually no antimicrobial activity
